Source: ChEMBL document CHEMBL1126722, “Potent nonpeptide angiotensin II receptor antagonists. 2. 1-(Carboxybenzyl)imidazole-5-acrylic acids” (J Med Chem, 1993)

What was measured:
Angiotensin II receptor = target: T1, Angiotensin II receptor (Rattus norvegicus, UniProt P29089+P25095+P35351); assay: Inhibition of [125I]AII binding to Angiotensin II receptor, type 1 of rat mesenteric arteries; type: protein assay
T1 sequence (P29089 whole entry): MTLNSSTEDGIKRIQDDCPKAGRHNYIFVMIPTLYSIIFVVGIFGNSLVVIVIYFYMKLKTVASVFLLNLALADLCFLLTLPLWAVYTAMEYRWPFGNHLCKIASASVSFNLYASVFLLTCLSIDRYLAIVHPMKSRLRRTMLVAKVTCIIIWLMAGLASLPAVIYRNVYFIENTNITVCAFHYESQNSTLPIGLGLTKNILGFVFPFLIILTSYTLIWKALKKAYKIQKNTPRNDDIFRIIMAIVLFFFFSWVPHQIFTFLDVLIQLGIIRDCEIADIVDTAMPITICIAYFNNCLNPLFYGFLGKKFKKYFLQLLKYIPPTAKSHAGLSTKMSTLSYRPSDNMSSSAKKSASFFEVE
T1 sequence (P25095 whole entry): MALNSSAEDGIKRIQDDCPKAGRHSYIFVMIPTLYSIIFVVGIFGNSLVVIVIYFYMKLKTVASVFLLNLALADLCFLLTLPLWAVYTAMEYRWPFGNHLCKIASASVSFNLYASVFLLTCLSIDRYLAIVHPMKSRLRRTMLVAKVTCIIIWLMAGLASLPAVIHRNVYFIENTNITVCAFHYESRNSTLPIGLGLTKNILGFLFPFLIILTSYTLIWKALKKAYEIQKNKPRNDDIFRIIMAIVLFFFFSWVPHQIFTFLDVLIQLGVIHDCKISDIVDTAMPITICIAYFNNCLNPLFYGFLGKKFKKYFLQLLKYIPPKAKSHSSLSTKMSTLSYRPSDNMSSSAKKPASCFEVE
T1 sequence (P35351 whole entry): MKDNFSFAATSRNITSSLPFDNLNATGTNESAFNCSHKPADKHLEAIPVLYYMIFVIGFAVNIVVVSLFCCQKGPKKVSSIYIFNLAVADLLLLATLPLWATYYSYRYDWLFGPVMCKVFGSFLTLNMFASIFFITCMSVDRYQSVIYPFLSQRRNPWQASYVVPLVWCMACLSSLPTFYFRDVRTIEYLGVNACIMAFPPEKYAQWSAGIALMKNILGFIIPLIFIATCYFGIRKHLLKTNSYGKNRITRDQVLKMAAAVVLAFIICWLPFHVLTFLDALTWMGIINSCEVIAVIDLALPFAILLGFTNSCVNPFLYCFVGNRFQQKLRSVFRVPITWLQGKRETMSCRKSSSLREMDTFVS

[1] = target: Angiotensin II receptor (Rattus norvegicus) (UniProt P29089+P25095+P35351); assay: In vivo inhibition of pressor response to angiotensin II in conscious normotensive rats; type: functional, organism-based

Compound | IC50 (Angiotensin II receptor) [nM] | ID50 [1] [mg/kg]
CCCCc1ncc(/C=C(\Cc2cccs2)C(=O)O)n1Cc1ccccc1C(=O)O | 6000 | 
CCCCc1ncc(/C=C(\Cc2cccs2)C(=O)O)n1Cc1ccccc1O | 34 | 
CCCc1ncc(/C=C(\Cc2cccs2)C(=O)O)n1Cc1ccccc1Cl | 127 | 8.1
CCCCCCc1ncc(/C=C(\Cc2cccs2)C(=O)O)n1Cc1ccccc1[N+](=O)[O-] | 43 | 
CCCCc1ncc(/C=C(\Cc2cccs2)C(=O)O)n1Cc1ccccc1Cl |  | 3.6
CCCCc1ncc(/C=C(\Cc2cccs2)C(=O)O)n1Cc1ccc(C(=O)O)c(-c2ccccc2)c1 | 2.5 | 0.18
CCCc1ncc(/C=C(\Cc2cccs2)C(=O)O)n1Cc1ccccc1[N+](=O)[O-] | 15 | 
CCCCc1ncc(/C=C(\Cc2cccs2)C(=O)O)n1Cc1ccc(S(N)(=O)=O)cc1 | 4.5 | > 3
CCCCCCc1ncc(/C=C(\Cc2cccs2)C(=O)O)n1Cc1ccccc1Cl | 123 | 5.7
CCCCc1ncc(/C=C(\Cc2cccs2)C(=O)O)n1Cc1ccc(C(=O)OC)cc1 | 39 | 
CCCCc1ncc(/C=C(\Cc2cccs2)C(N)=O)n1Cc1ccc(C(=O)O)cc1 | 21 | 
CCCCc1cnc(/C=C(\Cc2cccs2)C(=O)O)n1Cc1ccc(C(=O)O)cc1 | 248 | 
CCCCc1ncc(/C=C(/C(=O)O)C(C)(C)c2cccs2)n1Cc1ccc(C(=O)O)cc1 | 416 | 
CCCCc1ncc(/C=C(\CCc2cccs2)C(=O)O)n1Cc1ccc(C(=O)O)cc1 |  | 0.24
CC(C)CCc1ncc(/C=C(\Cc2cccs2)C(=O)O)n1Cc1ccc(C(=O)O)cc1 | 33.6 | 
CCCCc1ncc(/C=C(\Cc2cccs2)C(=O)O)n1CCc1ccc(C(=O)O)cc1 | 63 | 
CCCCc1ncc(/C=C(\Cc2cccs2)C(=O)O)n1Cc1ccccc1 | 4530 | 
CCCCc1ncc(C/C(=C/c2cccs2)C(=O)O)n1Cc1ccc(C(=O)O)cc1 |  | > 3
CCCCc1ncc(/C=C(\Cc2cccs2)c2nn[nH]n2)n1Cc1cccc(Cl)c1Cl | 1300 | 8
CCCCc1ncc(/C=C(\Cc2cccs2)C(=O)O)n1Cc1ccc(C(N)=O)cc1 | 0.56 | 
CCCCc1ncc(/C=C(\Cc2cccs2)C(=O)O)n1Cc1ccc(-c2ccccc2C(=O)O)cc1 | 6.6 | 0.62

Compound | IC50 (Angiotensin II receptor) [nM] | ID50 [1] [mg/kg]
CCCCc1ncc(/C=C(\Cc2cccs2)c2nn[nH]n2)n1Cc1ccccc1[N+](=O)[O-] | 230 | 3.5
CCCCc1ncc(/C=C(\CC2CCCS2)C(=O)O)n1Cc1ccc(C(=O)O)cc1 (centres undefined) | 33.8 | 
CCCCc1ncc(/C=C(\Cc2cccs2)C(=O)O)n1Cc1cccc(OC)c1[N+](=O)[O-] | 130 | 
CCCCc1ncc(/C=C(\Cc2cccs2)C(=O)O)n1Cc1ccccc1OC | 7350 | 15
CCCCc1ncc(CC(Cc2cccs2)C(=O)O)n1Cc1ccc(C(=O)O)cc1 (centres undefined) | 53 | 0.24
CCCCc1ncc(/C=C(\Cc2cccs2)C(=O)O)n1Cc1ccc(C#N)cc1 | 118 | 
CCCCc1ncc(/C=C(\Cc2cccs2)C(=O)O)n1Cc1ccc(O)c(C)c1 | 21 | 
CCCCc1ncc(/C=C(\Cc2cccs2)C(=O)O)n1Cc1ccc(C(=O)O)c(O)c1 | 0.59 | 0.15
CCCCc1ncc(/C=C(\Cc2cccs2)C(=O)NCC(=O)O)n1Cc1ccc(C(=O)O)cc1 | 4.81 | 
CCCCc1ncc(/C=C(\Cc2cccs2)C(N)=O)n1Cc1ccc(C(N)=O)cc1 | 94.2 | 
CCCCc1ncc(/C=C(\Cc2cccs2)C(=O)O)n1Cc1ccc(OC)c(C)c1 | 66 | 
CCCCc1ncc(/C=C(\Cc2cccs2)C(=O)O)n1Cc1ccc(C(=O)O)c(C(=O)O)c1 | 4.6 | 0.12
CCCc1ncc(/C=C(\Cc2cccs2)C(=O)O)n1Cc1ccc(C(=O)O)cc1 | 5 | 0.16
CCCCc1ncc(/C=C(\Cc2cccs2)c2nn[nH]n2)n1Cc1ccc(C(=O)O)cc1 | 0.3 | 0.7
CCCCc1ncc(/C=C(\Cc2cccs2)c2nn[nH]n2)n1Cc1ccccc1C(F)(F)F |  | 8
CCCCc1ncc(/C=C(\Cc2cccs2)C(=O)O)n1Cc1cccc(Cl)c1Cl | 46 | 2.8
CCCCc1ncc(/C=C(\Cc2cccs2)C(=O)O)n1Cc1cccc([N+](=O)[O-])c1 | 210 | 7
CCCCc1ncc(/C=C(\Cc2cccs2)C(=O)O)n1Cc1cccc(C(=O)O)c1 | 3.3 | 
CCCc1cccc(/C=C(\Cc2cccs2)C(=O)O)c1Cc1ccc(C(=O)O)cc1 | > 10 | 
CC(C)Cc1ncc(/C=C(\Cc2cccs2)C(=O)O)n1Cc1ccc(C(=O)O)cc1 | 163 | 2
CCCCc1ncc(/C=C(\Cc2cccs2)C(=O)OCC)n1Cc1ccc(C(=O)OCC)cc1 | 1270 | 

Compound | IC50 (Angiotensin II receptor) [nM] | ID50 [1] [mg/kg]
CCCCc1ncc(/C=C(\Cc2cccs2)C(=O)O)n1Cc1ccccc1C(F)(F)F | 260 | 3.4
CCCCc1ncc(/C=C(\Cc2cccs2)C(=O)O)n1Cc1cc(Cl)c(C(=O)O)cc1Cl | 35 | 0.68
CC/C=C/c1ncc(/C=C(\Cc2cccs2)C(=O)O)n1Cc1ccccc1Cl | 570 | 
CCCCc1ncc(/C=C(\Cc2cccs2)c2nn[nH]n2)n1Cc1ccccc1Cl | 310 | 8
CCCC/C(=C\c1cnc(CCCC)n1Cc1ccc(C(=O)O)cc1)C(=O)O |  | 0.33
CCCCc1ncc(/C=C(\Cc2ccccc2)C(=O)O)n1Cc1ccc(C(=O)O)cc1 | 4.26 | 
CCCCc1ncc(/C=C(\Cc2cccs2)C(=O)O)n1Cc1ccccc1C#N | 22 | 
CCCCc1ncc(/C=C(\Cc2cccs2)C(=O)O)n1Cc1ccc(C(=O)O)cc1Cl | 1.45 | 0.06
CCCCc1ncc(/C=C(\Cc2cccs2)C(=O)O)n1Cc1ccc(-c2nn[nH]n2)cc1 | 0.4 | 0.2
CCCCc1ncc(/C=C(\Cc2cccs2)C(=O)O)n1-c1ccc(C(=O)O)cc1 | 250 | 
CCCCc1ncc(/C=C(\Cc2cccs2)C(=O)O)n1Cc1ccc(C(=O)OCC)cc1 | 27.6 | 
CCCCCCc1ncc(/C=C(\Cc2cccs2)C(=O)O)n1Cc1ccc(C(=O)O)cc1 | 0.8 | 0.6
CCCCc1ncc(/C=C(\Cc2cccs2)C(=O)O)n1Cc1ccc(CC(=O)O)cc1 | 60 | 0.84
CCCCc1ncc(/C=C(\Cc2cccs2)C(=O)O)n1Cc1ccc([N+](=O)[O-])cc1 | 620 | 
CCCCc1ncc(/C=C(\Cc2cccs2)C(=O)O)n1Cc1ccc(C(=O)O)cc1[N+](=O)[O-] | 0.15 | 0.06
CCCCc1ncc(/C=C(\Cc2cccs2)C(=O)O)n1Cc1ccc(C(=O)O)cc1 (stereo in doubt; 2) |  | 0.08
CCCCc1ncc(/C=C(\Cc2cccs2)C(=O)O)n1Cc1ccc(C(=O)O)c(Cl)c1 | 1 | 0.12
CCCCc1ncc(/C=C(\Cc2cccs2)C(=O)O)n1Cc1cccc(OC)c1 | 180 | 8
CCCCc1ncc(/C=C(\Cc2cccs2)C(=O)O)n1Cc1ccccc1[N+](=O)[O-] | 31 | 2.6
CCCCc1ncc(/C=C/C(=O)O)n1Cc1ccc(C(=O)O)cc1 | 391 | 
